This passage reports solubility results from the OPERA property sets (Mansouri et al. 2018).

The structures appear in SMILES notation. In brackets after ≈: the same amount, converted by molar mass.

For the first data set the following is noted: 22 °C.
In turn, `COCOC(=O)c1ccccc1O` registered a solubility of 5.01 mM (≈ 913 µg/mL). This lies in the millimolar range.
As to `C[C@](N)(C(=O)O)c1ccccc1`, the solubility came out at 291 mM (≈ 48000 µg/mL). This solubility lies about 58-fold higher than the previous one.

The data set is the same for the next values; noted with them: 23 °C.
`N#CCC(=O)Nc1ccccc1` gave a solubility of 1.87 mM (≈ 300 µg/mL).
On the same count and under the same terms, with `NC(=O)C[C@H](NC(N)=O)C(=O)O` the figure was 308 mM (≈ 54000 µg/mL); with `O=c1[nH]c(=O)c2cc([N+](=O)[O-])cc([N+](=O)[O-])c2[nH]1`, 0.623 mM (≈ 157 µg/mL); with `O=C(O)c1ccccc1C1OC(=O)c2ccccc21` (centres undefined), 0.787 mM (≈ 200 µg/mL).

Still in this data set, the particulars now being: 24 °C.
Regarding `c1ccc(CNCCNCc2ccccc2)cc1`, the solubility stood at 16.3 mM (≈ 3930 µg/mL). In other words, the millimolar range.

The data set is the same for the next values; noted with them: 25 °C.
As for `CCOC(=O)CCc1ccccc1`, the solubility turned out to be 1.23 mM (≈ 220 µg/mL).
Still for that read-out and setting: then `O=C(O)c1cccs1`, with 58.5 mM (≈ 7500 µg/mL); and `C[C@@H](N)[C@@H](O)c1ccccc1`, with 132 mM (≈ 20000 µg/mL).
The same measure, in the same setting: with `CCCC(C)C(O)CC` (centres undefined) the figure was 10.9 mM (≈ 1420 µg/mL).
Still for that read-out and setting: with `CCCCC(=O)NCCNC(=O)CCCC` the figure was 15.3 mM (≈ 3500 µg/mL); with `NC(=O)NCCC(=O)O`, 158 mM (≈ 20900 µg/mL); with `CN(C)c1cccc(S(=O)(=O)O)c1`, 1990 mM (≈ 400000 µg/mL).
Compound `Oc1nc2ccccc2nc1O` registered a solubility of 1.54 mM (≈ 250 µg/mL).
The same measure, in the same setting: with `CC(=O)N[C@@H](CC(C)C)C(=O)O` the figure was 46.8 mM (≈ 8100 µg/mL); with `Cc1cccc(I)c1O`, 14.5 mM (≈ 3400 µg/mL); with `CCc1c[nH]c(=O)[nH]c1=O`, 11.4 mM (≈ 1600 µg/mL).
The same measure, in the same setting: then `CCCCCCC(C(=O)O)C(=O)O`, with 22 mM (≈ 4150 µg/mL).
On the same count and under the same terms, then `CCOc1ccc(C(=O)O)c2ccccc12`, with 0.0772 mM (≈ 16.7 µg/mL).
In turn, `COCCCl` came in with a solubility of 846 mM (≈ 80000 µg/mL).
Still for that read-out and setting: with `Cc1cc(Cl)cc(C)c1O` the figure was 21.1 mM (≈ 3300 µg/mL); with `Cc1cc(O)c(Cc2ccccc2)c(C)c1Cl`, 0.05 mM (≈ 12.3 µg/mL); with `O=C(O)C(=O)Nc1ccc(Cl)cc1Cl`, 5.29 mM (≈ 1240 µg/mL).
Same read-out and setting: with `NS(=O)(=O)c1cccc(S(N)(=O)=O)c1` the figure was 6.77 mM (≈ 1600 µg/mL); with `O=C(O)c1ccc(Br)c([N+](=O)[O-])c1`, 1.08 mM (≈ 265 µg/mL); with `CCC(=O)OC(C)C(=O)OC` (centres undefined), 137 mM (≈ 22000 µg/mL).
Same read-out and setting: with `CC1OC(=O)c2cc([N+](=O)[O-])ccc21` (centres undefined) the figure was 2.42 mM (≈ 468 µg/mL).
Regarding `CSc1ncccn1`, the solubility turned out to be 396 mM (≈ 50000 µg/mL). This solubility lies about 160-fold higher than the previous one.
As for `CCCCCCCCCOC(=O)c1cccnc1`, the solubility amounted to 0.802 mM (≈ 200 µg/mL).
The same measure, in the same setting: with `O=C(O)c1ccc(F)c([N+](=O)[O-])c1` the figure was 26.2 mM (≈ 4860 µg/mL); with `CCCOP(=O)(OCC)OCCC`, 105 mM (≈ 22000 µg/mL).
On the same count and under the same terms, then `CC(Cl)C(C)(C)O` (centres undefined), with 510 mM (≈ 62500 µg/mL).
For `O=C1OCc2ccc(I)cc21`, the solubility was 0.615 mM (≈ 160 µg/mL).
For the compound `CCOC(=O)c1cccnc1`, the solubility came out at 370 mM (≈ 56000 µg/mL). Against the preceding compound, the solubility is about 600-fold higher.
The same measure, in the same setting: then `O=C(NC1CCCCC1)c1cccnc1`, with 4.8 mM (≈ 980 µg/mL).
Same read-out and setting: with `NC(C(=O)O)C(O)C(=O)O` (centres undefined) the figure was 149 mM (≈ 22200 µg/mL); with `N#CI`, 233 mM (≈ 35600 µg/mL); with `Cc1ccc(S(=O)(=O)N(Cl)Cl)cc1`, 0.342 mM (≈ 82.1 µg/mL).
Same read-out and setting: then `CCCCC(C)C(C)O` (centres undefined), with 8.75 mM (≈ 1140 µg/mL).
Compound `CCCOC(=O)CCOC` came in with a solubility of 219 mM (≈ 32000 µg/mL).
The compound `CCN1CC(=O)N=C1N` had a solubility of 684 mM (≈ 87000 µg/mL). Against the preceding compound, the solubility is about 3.1-fold higher.
`O=C(O)c1ccc(NC(=O)c2cccnc2)cc1`: the solubility amounted to 0.826 mM (≈ 200 µg/mL).
`O=CNCC(=O)O`: the solubility is 1850 mM (≈ 191000 µg/mL).
On the same count and under the same terms, then `CC(C)[C@@H](Br)C(=O)O`, with 78.9 mM (≈ 14300 µg/mL); and `O=C(O)c1cccc(C(=O)O)c1[N+](=O)[O-]`, with 10.2 mM (≈ 2160 µg/mL).
Still for that read-out and setting: with `CCCCCN(N=Cc1ccc([N+](=O)[O-])o1)C(N)=O` the figure was 1.27 mM (≈ 340 µg/mL).
In turn, `O=C(NCCO)c1cc(O)ccc1O` registered a solubility of 286 mM (≈ 56400 µg/mL).
Still for that read-out and setting: with `CCc1c[nH]c(=O)nc1N` the figure was 95.6 mM (≈ 13300 µg/mL).
On the same count and under the same terms, then `CCN[C@@H](C)C(=O)O` (racemic), with 4490 mM (≈ 526000 µg/mL).
Still for that read-out and setting: with `CCCC[C@H](O)C(C)C` the figure was 15.4 mM (≈ 2010 µg/mL); with `O=[N+]([O-])c1cc(CCO)ccc1O`, 69.9 mM (≈ 12800 µg/mL).
`CCCCOP(=O)(CCCC)CCCC` gave a solubility of 19.2 mM (≈ 4500 µg/mL).
The same measure, in the same setting: with `CCCCCCCCCCNC(=O)c1cccnc1` the figure was 0.838 mM (≈ 220 µg/mL); with `CCCC[C@H](NC(C)=O)C(=O)O` (racemic), 307 mM (≈ 53100 µg/mL).
The same measure, in the same setting: with `CSCCC(NC(C)=O)C(=O)O` (racemic) the figure was 1070 mM (≈ 205000 µg/mL).
On the same count and under the same terms, with `O=C(O)c1cccc2cccnc12` the figure was 18 mM (≈ 3120 µg/mL).

Staying with this data set, now noted: 26 °C.
For `Cc1ccc(C)c(C)n1`, the solubility was determined as 257 mM (≈ 31200 µg/mL).
The same measure, in the same setting: with `C=CCc1ccc(O)c(O)c1` the figure was 166 mM (≈ 25000 µg/mL); with `N#CCCN(CCC#N)[C@@H](CCC(=O)O)C(=O)O`, 592 mM (≈ 150000 µg/mL).

The data set is the same for the next values; noted with them: 27 °C.
In turn, `Cc1c2c(cc3c1ccc1ccccc13)CCCC2` came in with a solubility of 0.000179 mM (≈ 0.044 µg/mL).

The same data set, now with this note: 28 °C.
As to `CC(NC(N)=O)NC(N)=O`, the solubility came out at 256 mM (≈ 37400 µg/mL). This counts as millimolar.
Take `NC(=O)NCO`: the solubility worked out at 451 mM (≈ 40600 µg/mL).

The same data set, now with this note: 29 °C.
Compound `Cc1cnc(NS(=O)(=O)c2ccc(N)cc2)nc1C` came in with a solubility of 0.719 mM (≈ 200 µg/mL).

The same data set, now with this note: 30 °C.
Regarding `C[C@H](Nc1ccccc1Cl)C(=O)O` (racemic), the solubility turned out to be 4.71 mM (≈ 940 µg/mL).
`CCn1c(=O)c2c(ncn2C)n(C)c1=O`: the solubility came out at 191 mM (≈ 39800 µg/mL).
On the same count and under the same terms, then `CCCCCCOC(=O)c1ccc(O)cc1`, with 0.112 mM (≈ 25 µg/mL); and `CCCOC(=O)CO[N+](=O)[O-]`, with 11 mM (≈ 1800 µg/mL).
`COC(C)C(C)Cl` (centres undefined): the solubility was 10 mM (≈ 1230 µg/mL).

The term solubility denotes the concentration that dissolves in the medium under given conditions. A higher solubility goes with a readily soluble substance.
